According to PMC4729491, “The Cellular Thioredoxin-1/Thioredoxin Reductase-1 Driven Oxidoreduction Represents a Chemotherapeutic Target for HIV-1 Entry Inhibition” (PLoS ONE, 2016):

How the values were obtained:
TrxR1 = molecular target: T1, TrxR1 (Homo sapiens, UniProt Q16881); experiment: Inhibition of TrxR1-dependent reduction of HIV-1 gp120 (ELISA); type: biochemical; settings: 100 μM compound; 1 μM Trx1 + 100 nM TrxR1 + 240 μM NADPH; control without compound 38–54%
T1 construct: purchased IMCO Corporation (Stockholm, Sweden) or Sino Biological Inc (Zoersel, Belgium)
T1 sequence (Q16881 1-499 isoform Q16881-5): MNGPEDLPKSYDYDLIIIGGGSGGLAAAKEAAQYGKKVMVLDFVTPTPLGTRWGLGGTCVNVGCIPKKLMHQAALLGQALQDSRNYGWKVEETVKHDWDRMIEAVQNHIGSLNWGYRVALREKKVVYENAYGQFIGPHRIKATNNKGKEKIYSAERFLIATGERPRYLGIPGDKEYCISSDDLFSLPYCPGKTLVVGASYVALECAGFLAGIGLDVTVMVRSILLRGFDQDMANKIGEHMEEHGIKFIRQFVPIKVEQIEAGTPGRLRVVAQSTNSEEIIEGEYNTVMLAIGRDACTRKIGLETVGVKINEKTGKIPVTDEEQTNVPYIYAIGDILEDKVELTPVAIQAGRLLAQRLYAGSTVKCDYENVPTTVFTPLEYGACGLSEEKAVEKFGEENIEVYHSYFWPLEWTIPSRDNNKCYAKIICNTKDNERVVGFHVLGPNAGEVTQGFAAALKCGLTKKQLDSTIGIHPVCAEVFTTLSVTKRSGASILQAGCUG
Description: After coating 96-well Maxi-Sorp ELISA plates (Nunc Inc, Roskilde, Denmark) with 100 μl gp120 in PBS (2 μg/ml), these were blocked with PBST (phosphate buffered saline, pH 7.4 with 0.05% Tween 20) as described before). The experiment was performed with two different set-ups for each compound, but each reaction mixture contained 1 μM Trx1 + 100 nM TrxR1 + 240 μM NADPH + 100 μM of the compounds, with auranofin as an inhibition control. In the first set-up (TrxR1 + Trx1), the reaction mixtures were pre-incubated for 15 min at 37°C in the absence of the compounds, which were added after the preincubation period. In the second set-up (TrxR1 + compounds), the reaction mixtures were exposed to the different compounds, but in the absence of Trx1, which was added after the 15 min pre-incubation period. The reaction mixtures were then added to the gp120-coated wells to allow the reduction of gp120, incubated for 15 min at 37°C and then washed four times with PBST to remove any unbound material. Subsequently, the wells were incubated with 2 μM biotin-maleimide for 30 min at room temperature, then washed and incubated with steptavidine-ALP (diluted 1:1000) at room temperature. […] The absorbance at 405 nm was measured using a microplate reader (Wallac Perkin-Elmer).

[1] = tested on: HuT-78/HIV-1 and Sup-T1 cells; experiment: cells; type: cell-based; settings: cocultures of HuT-78/HIV-1(IIIB) and Sup-T1 cells; data not shown
Description: Persistently infected HuT-78/HIV-1 cells were thoroughly washed to eliminate free virions. Next, 1 x 10^5 HuT-78/HIV-1 cells were co-cultivated with 1 x 10^5 Sup-T1 cells in 96-well plates (200 μl/well) during 20 h at 37°C, in the presence or absence of a serial dilution of compound. Afterwards, the formation of syncytia was evaluated microscopically. The EC50 was defined as the compound concentration required to suppress syncytia formation by 50%.

HIV = tested on: HIV; parameters: method as in PMID 8895167; settings: cited from earlier work
[2] = molecular target: T2, HIV-1 reverse transcriptase (Human immunodeficiency virus type 1 group M subtype B, UniProt P04585); experiment: Reverse transcriptase inhibition (Lenti RT Activity kit); type: biochemical; settings: 25 μM; poly-A template, overnight
Description: The ability of the compounds to inhibit the activity of viral RT was determined by a Lenti RT Activity kit (Cavidi, Uppsala, Sweden) according to the manufacturer’s instructions. A poly-A-coated plate was incubated with the reaction bufferfor up to 1 h at 33°C. Then, a mixture of the virus preparation (see virus expression) and 25 μM of the test compounds or an inhibitor control (nevirapin) were added to the RT assay mixture and incubated overnight at 33°C. The plate was washed, exposed to the provided tracer for 90 min at 33°C and washed again, before the provided substrate was added to quantify the RT reaction that took place. The plate was incubated in the dark for 30 min and subsequently read at 405 nm in a Labsystem Multiskan RC (Artisan Technology Group, Champaign, IL, USA).

[3] = molecular target: T2, HIV-1 reverse transcriptase; parameters: method as in PMID 1376314; settings: template poly rC.dG versus other templates ref 38; cited from earlier work
HIV-1 = experiment: Infectivity assay in TZM-bl cells (luciferase); settings: 10 μM, 40 h
Description: TZM-bl cells (1 x 10^5) were infected with diluted virus suspension (see virus expression) in a total volume of 0.2 ml DMEM medium in the presence of the compounds or an inhibitor control (nevirapine). After 40 h at 37°C, the luminescence was assayed and quantified in a Luminoskan Ascent (Thermo Labsystems, Schwerte, Germany) for luciferase activity using the OneGlo luciferase assay system (Promega, Nacka, Sweden).

Row | Structure (SMILES) | reduction of gp120 disulfide bonds, % of DTT (set at 100%) (TrxR1) | inhibition of syncytium formation [1] | CD4 counts (HIV; HIV-infected patients ref 9) | plasma HIV-RNA counts (HIV; HIV-infected patients treated for rheumatoid arthritis ref 9) | inhibition of RT polymerase activity [2] | better inhibition efficacy with poly rC.dG than other templates [3] | inhibition of luminescence signal (HIV infection of TZM-bl) (HIV-1)
1 | CC(=O)OC[C@H]1O[C@@H]([S-])[C@H](OC(C)=O)[C@@H](OC(C)=O)[C@@H]1OC(C)=O.CCP(CC)CC.[Au+] [auranofin] | 6–10% | failed to inhibit syncytium formation | increased the CD4 counts | lowered |  |  | 
2 | Cc1ccnc2c1NC(=O)c1cccnc1N2C1CC1 [nevirapine] |  |  |  |  | pronounced, however not complete inhibitory activity | ~ 10 fold | full inhibition
